# According to patent US9302999B2, “Substituted triazoles as herbicides” (E. I. DU PONT DE NEMOURS AND COMPANY, priority 2012, dated 2016):
# Legend:
# Format in all cases: in vivo
# [1] = test system: buckwheat, wild (wild buckwheat, Polygonum convolvulus); experiment: Test D pre-/postemergence: buckwheat, wild
# Procedure, shortened: (§1)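 Visual control ratings (0–100) after 14–21 days, controlled environment. Preemergence on silt loam; postemergence on 2–18 cm plants.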
# [2] = test system: cocklebur (common cocklebur, Xanthium strumarium); experiment: Test C pre-/postemergence: cocklebur
# Procedure, shortened: (§2)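 Preemergence on seeds in loam/sand, postemergence on 2–18 cm (1–4-leaf) plants in peat-based medium; compounds in non-phytotoxic solvent with surfactant. After 13–15 days in greenhouse, visual rating versus controls, 0 (no effect) to 100 (complete control).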
# [3] = test system: woolly cupgrass (Eriochloa villosa); experiment: Test C pre-/postemergence: woolly cupgrass
# Procedure, shortened: as §2
# [4] = test system: bromegrass, downy (downy bromegrass, Bromus tectorum); experiment: Test D pre-/postemergence: bromegrass, downy
# Procedure, shortened: as §1
# [5] = test system: bromegrass, downy (downy bromegrass, Bromus tectorum); experiment: Test C pre-/postemergence: bromegrass, downy
# Procedure, shortened: as §2
# [6] = test system: nightshade (eastern black nightshade, Solanum ptycanthum); experiment: Test C pre-/postemergence: nightshade; conditions: Preemergence
# Text: Seeds of plant species selected from blackgrass (Alopecurus myosuroides), bromegrass, downy (downy bromegrass, Bromus tectorum), foxtail, green (green foxtail, Setaria viridis), ryegrass, Italian (Italian ryegrass, Lolium multiflorum), winter wheat (Triticum aestivum), wild oat (Avena fatua), galium (catchweed bedstraw, Galium aparine), bermudagrass (Cynodon dactylon), surinam grass (Brachiaria decumbens), cocklebur (common cocklebur, Xanthium strumarium), corn (Zea mays), large crabgrass (Digitaria sanguinalis), woolly cupgrass (Eriochloa villosa), foxtail, giant (giant foxtail, Setaria faberii), goosegrass (Eleusine indica), johnsongrass (Sorghum halepense), kochia (Kochia scoparia), lambsquarters (Chenopodium album), morningglory (Ipomoea coccinea), nightshade (eastern black nightshade, Solanum ptycanthum), nutsedge, yellow (yellow nutsedge, Cyperus esculentus), pigweed (Amaranthus retroflexus), ragweed (common ragweed, Ambrosia elation), soybean (Glycine max), common (oilseed) sunflower (Helianthus annuus), Russian thistle (Salsola kali) and velvetleaf (Abutilon theophrasti) were planted into a blend of loam soil and sand and treated preemergence with test chemicals formulated in a non-phytotoxic solvent mixture which included a surfactant.
# At the same time, plants selected from these crop and weed species and also barley (winter barley, Hordeum vulgare), canarygrass (Phalaris minor), chickweed (common chickweed, Stellaria media) windgrass (Apera spica-venti) and deadnettle (henbit deadnettle, Lamium amplexicaule) were planted in pots containing Redi-Earth® planting medium (Scotts Company, 14111 Scottslawn Road, Marysville, Ohio 43041) comprising spaghnum peat moss, vermiculite, wetting agent and starter nutrients and treated with postemergence applications of test chemicals formulated in the same manner. Plants ranged in height from 2 to 18 cm (1- to 4-leaf stage) for postemergence treatments.
# Treated plants and controls were maintained in a greenhouse for 13 to 15 days, after which time all species were compared to controls and visually evaluated. Plant response ratings, summarized in Table C, are based on a scale of 0 to 100 where 0 is no effect and 100 is complete control. A dash (-) response means no test result.
# [7] = test system: speedwell (bird's-eye speedwell, Veronica persica); experiment: Test D pre-/postemergence: speedwell; conditions: Postemergence
# Procedure, shortened: as §1
# [8] = test system: rice (Oryza sativa); experiment: Test B flooded paddy: rice; conditions: Flood; 250 g ai/ha; applied to paddy water at 2-leaf stage; visually evaluated after 13 to 15 days
# Procedure, shortened: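 Paddy-water application: seedlings at 2-leaf stage, flood depth 3 cm maintained for the test duration. Evaluation after 13–15 days in the greenhouse by eye relative to controls; 0–100 scale.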
# [9] = Postemergence, 31 g ai/ha, scale 0 to 100 (0 no effect, 100 complete control)
# [10] = Postemergence, 62 g ai/ha, scale 0 to 100 (0 no effect, 100 complete control)
# [11] = Postemergence, 125 g ai/ha, scale 0 to 100, 0 no effect, 100 complete control
# [12] = Postemergence, 250 g ai/ha, scale 0 to 100 (0 no effect, 100 complete control)
# [13] = Postemergence, 16 g ai/ha, scale 0 to 100
# [14] = Preemergence, 16 g ai/ha, scale 0 to 100 (0 no effect, 100 complete control)
# [15] = Preemergence, 31 g ai/ha, scale 0 to 100 (0 no effect, 100 complete control)
# [16] = Preemergence, 62 g ai/ha, scale 0 to 100
# [17] = Preemergence, 125 g ai/ha, scale 0 to 100
# [18] = Preemergence, 250 g ai/ha, scale 0 to 100
# [19] = Postemergence, 250 g ai/ha, scale 0 to 100
# [20] = Preemergence, 31 g ai/ha, scale of 0 to 100, 0 is no effect, 100 is complete control
# [21] = Preemergence, 62 g ai/ha, scale 0 to 100, 0 no effect, 100 complete control
# [22] = Preemergence, 125 g ai/ha, scale 0 to 100, 0 no effect, 100 complete control
# [23] = Preemergence, 250 g ai/ha, scale 0 to 100, 0 no effect, 100 complete control
# [24] = Preemergence, 62 g ai/ha, scale of 0 to 100, 0 is no effect, 100 is complete control
# [25] = 31 g ai/ha, scale of 0 to 100, 0 is no effect, 100 is complete control
# [26] = 62 g ai/ha, scale of 0 to 100, 0 is no effect, 100 is complete control
# [27] = 125 g ai/ha, scale 0 to 100, 0 no effect, 100 complete control
# [28] = 250 g ai/ha, scale 0 to 100, 0 no effect, 100 complete control
smiles,measurement,setting,value
"Cc1nn(-c2ccc(F)cc2)nc1Oc1ccnc(C(F)(F)F)c1 [Compound 129, 4-[[2-(4-fluorophenyl)-5-methyl-2H-1,2,3-triazol-4-yl]oxy]-2-(trifluoromethyl)pyridine]","Plant response rating: Buckwheat, Wild",[1]; [9],60
same,"Plant response rating: Buckwheat, Wild",[1]; [10],80
same,"Plant response rating: Buckwheat, Wild",[1]; [11],100
same,"Plant response rating: Buckwheat, Wild",[1]; [12],100
same,"Plant response rating, Buckwheat, Wild",[1]; [13],60
same,"Plant response rating, Buckwheat, Wild",[1]; [14],0
same,"Plant response rating, Buckwheat, Wild",[1]; [15],0
same,"Plant response rating, Buckwheat, Wild",[1]; [16],0
same,"Plant response rating, Buckwheat, Wild",[1]; [17],70
same,"Plant response rating, Buckwheat, Wild",[1]; [18],100
same,"Plant response rating, Cocklebur",[2]; [9],5
same,"Plant response rating, Cocklebur",[2]; [10],10
same,"Plant response rating, Cocklebur",[2]; [11],15
same,"Plant response rating, Cocklebur",[2]; [19],25
same,"Plant response rating, Cocklebur",[2]; [20],0
same,"Plant response rating, Cocklebur",[2]; [21],0
same,"Plant response rating, Cocklebur",[2]; [22],0
same,"Plant response rating, Cocklebur",[2]; [23],0
same,"Plant response rating, Cupgrass, Woolly",[3]; [9],35
same,"Plant response rating, Cupgrass, Woolly",[3]; [10],65
same,"Plant response rating, Cupgrass, Woolly",[3]; [11],65
same,"Plant response rating, Cupgrass, Woolly",[3]; [19],70
same,"Plant response rating, Cupgrass, Woolly",[3]; [20],80
same,"Plant response rating, Cupgrass, Woolly",[3]; [24],95
same,"Plant response rating, Cupgrass, Woolly",[3]; [22],98
same,"Plant response rating, Cupgrass, Woolly",[3]; [23],98
same,"Plant response rating: Bromegrass, Downy",[4]; [9],10
same,"Plant response rating: Bromegrass, Downy",[4]; [10],20
same,"Plant response rating: Bromegrass, Downy",[4]; [11],30
same,"Plant response rating: Bromegrass, Downy",[4]; [12],30
same,"Plant response rating, Bromegrass, Downy",[4]; [13],10
same,"Plant response rating, Bromegrass, Downy",[4]; [14],0
same,"Plant response rating, Bromegrass, Downy",[4]; [15],10
same,"Plant response rating, Bromegrass, Downy",[4]; [16],10
same,"Plant response rating, Bromegrass, Downy",[4]; [17],20
same,"Plant response rating, Bromegrass, Downy",[4]; [18],30
same,"Plant response rating, Bromegrass, Downy",[5]; [9],35
same,"Plant response rating, Bromegrass, Downy",[5]; [10],35
same,"Plant response rating, Bromegrass, Downy",[5]; [11],40
same,"Plant response rating, Bromegrass, Downy",[5]; [19],40
same,"Plant response rating, Bromegrass, Downy",[5]; [20],30
same,"Plant response rating, Bromegrass, Downy",[5]; [21],80
same,"Plant response rating, Bromegrass, Downy",[5]; [22],95
same,"Plant response rating, Bromegrass, Downy",[5]; [23],100
same,"Plant response rating, Nightshade",[6]; [25],85
same,"Plant response rating, Nightshade",[6]; [26],90
same,"Plant response rating, Nightshade",[6]; [27],90
same,"Plant response rating, Nightshade",[6]; [28],95
same,Plant response rating: Speedwell,"[7]; 31 g ai/ha, scale 0 to 100 (0 no effect, 100 complete control)",100
same,Plant response rating: Speedwell,"[7]; 62 g ai/ha, scale 0 to 100 (0 no effect, 100 complete control)",100
same,Plant response rating: Speedwell,[7]; [27],100
same,Plant response rating: Speedwell,"[7]; 250 g ai/ha, scale 0 to 100 (0 no effect, 100 complete control)",100
same,"Plant response rating, Speedwell","[7]; 16 g ai/ha, scale 0 to 100",100
Fc1ccc(-n2nc(Cc3ccnc(C(F)(F)F)c3)c(OCC(F)(F)F)n2)cc1 [Compound 142],"Plant response rating, Cocklebur",[2]; [10],30
same,"Plant response rating, Cocklebur",[2]; [11],40
same,"Plant response rating, Cocklebur",[2]; [19],50
same,"Plant response rating, Cocklebur",[2]; [20],0
same,"Plant response rating, Cocklebur",[2]; [24],10
same,"Plant response rating, Cocklebur",[2]; [22],10
same,"Plant response rating, Cupgrass, Woolly",[3]; [9],40
same,"Plant response rating, Cupgrass, Woolly",[3]; [10],40
same,"Plant response rating, Cupgrass, Woolly",[3]; [11],75
same,"Plant response rating, Cupgrass, Woolly",[3]; [19],85
same,"Plant response rating, Cupgrass, Woolly",[3]; [20],55
same,"Plant response rating, Cupgrass, Woolly",[3]; [24],70
same,"Plant response rating, Cupgrass, Woolly",[3]; [22],95
same,"Plant response rating, Cupgrass, Woolly",[3]; [23],98
same,"Plant response rating, Bromegrass, Downy",[5]; [9],25
same,"Plant response rating, Bromegrass, Downy",[5]; [10],45
same,"Plant response rating, Bromegrass, Downy",[5]; [11],45
same,"Plant response rating, Bromegrass, Downy",[5]; [19],50
same,"Plant response rating, Bromegrass, Downy",[5]; [20],20
same,"Plant response rating, Bromegrass, Downy",[5]; [24],60
same,"Plant response rating, Bromegrass, Downy",[5]; [22],90
same,"Plant response rating, Bromegrass, Downy",[5]; [23],90
same,"Plant response rating, Nightshade",[6]; [25],95
same,"Plant response rating, Nightshade",[6]; [26],95
same,"Plant response rating, Nightshade",[6]; [27],98
same,"Plant response rating, Nightshade",[6]; [28],98
same,"Plant response rating, Rice (0 to 100 scale, 0 is no effect, 100 is complete control)",[8],60
